Laboratory results taken from ChEMBL document CHEMBL5154649, “Design, synthesis, and characterization of novel aminoalcohol quinolines with strong in vitro antimalarial activity” (Eur J Med Chem, 2022).
pIC50: −log10 of the molar value.

Columns and labels:
Plasmodium falciparum [1] = experiment: Selectivity index, ratio of IC50 for antiplasmodial activity against CQ-susceptible Plasmodium falciparum 3D7 to IC50 for antiplasmodial activity against CQ-resistant Plasmodium falciparum W2 by SYBR Green 1 dye based fluorescence assay; assay type: functional
Plasmodium falciparum [2] = experiment: Antiplasmodial activity against CQ-susceptible Plasmodium falciparum 3D7 assessed as inhibition of parasite growth measured after 48 hrs by SYBR Green 1 dye based fluorescence assay; assay type: functional, organism-based; conditions: 3D7, 48 h
Plasmodium falciparum [3] = experiment: Antiplasmodial activity against CQ-resistant Plasmodium falciparum W2 assessed as inhibition of parasite growth measured after 48 hrs by SYBR Green 1 dye based fluorescence assay; assay type: functional, organism-based; conditions: W2, 48 h
[4] = Cytotoxicity against Chinese hamster CHO cells assessed as reduction in cell viability incubated for 24 hrs by MTT assay; assay type: toxicity, cell-based, Cricetulus griseus
[5] = Cytotoxicity against human THP-1 cells assessed as reduction in cell viability incubated for 72 hrs by MTT assay; assay type: toxicity, cell-based

Structure (SMILES)	Ratio IC50 (Plasmodium falciparum [1])	pIC50 (Plasmodium falciparum [2])	pIC50 (Plasmodium falciparum [3])	IC50 at 24 h [4] [µM]	IC50 at 72 h [5] [µM]
O[C@H](CN1CCN(C[C@@H](O)c2cc(C(F)(F)F)nc3c(C(F)(F)F)cccc23)CC1)c1cc(C(F)(F)F)nc2c(C(F)(F)F)cccc12	1.35	6.02	6.15	–	–
C[C@@H](CO)NC[C@@H](O)c1cc(C(F)(F)F)nc2c(C(F)(F)F)cccc12	–	6.78	–	–	–
OCCN1CCN(C[C@H](O)c2cc(C(F)(F)F)nc3c(C(F)(F)F)cccc23)CC1	–	< 6.00	–	–	–
C[C@H](CO)NC[C@H](O)c1cc(C(F)(F)F)nc2c(C(F)(F)F)cccc12	4.8	7.32	8.00	–	–
NCCCCCCCCCCCCNC[C@@H](O)c1cc(C(F)(F)F)nc2c(C(F)(F)F)cccc12	0.55	7.62	7.36	–	–
O[C@H](CNCCN1CCN(C[C@@H](O)c2cc(C(F)(F)F)nc3c(C(F)(F)F)cccc23)CC1)c1cc(C(F)(F)F)nc2c(C(F)(F)F)cccc12	5.8	6.44	7.21	–	–
COC[C@H](C)NC[C@@H](O)c1cc(C(F)(F)F)nc2c(C(F)(F)F)cccc12	0.2	7.93	7.24	–	–
O[C@@H](CN1CCNCC1)c1cc(C(F)(F)F)nc2c(C(F)(F)F)cccc12	–	< 6.00	–	–	–
NCCNC[C@H](O)c1cc(C(F)(F)F)nc2c(C(F)(F)F)cccc12	–	< 6.00	< 6.00	–	–
O[C@@H](CNCCCN1CCN(CCCNC[C@H](O)c2cc(C(F)(F)F)nc3c(C(F)(F)F)cccc23)CC1)c1cc(C(F)(F)F)nc2c(C(F)(F)F)cccc12	> 3.1	< 6.00	6.49	–	–
O[C@H](CN1CCN(Cc2cccc3ccccc23)CC1)c1cc(C(F)(F)F)nc2c(C(F)(F)F)cccc12	–	< 6.00	–	–	–
COc1cccc2c1C(=O)c1c(O)c3c(c(O)c1C2=O)C[C@@](O)(C(=O)CO)C[C@@H]3O[C@H]1C[C@H](N)[C@H](O)[C@H](C)O1 [DOXORUBICIN]	–	–	–	3.6	0.02
OCCN1CCN(C[C@@H](O)c2cc(C(F)(F)F)nc3c(C(F)(F)F)cccc23)CC1	–	< 6.00	–	–	–
CC(C)(CO)NC[C@H](O)c1cc(C(F)(F)F)nc2c(C(F)(F)F)cccc12	3.15	7.00	7.50	–	–
C[C@H](CO)NC[C@@H](O)c1cc(C(F)(F)F)nc2c(C(F)(F)F)cccc12 (single isomer, unassigned)	6.85	7.16	8.00	–	–
O[C@H](CN1CCN(C(c2ccccc2)c2ccccc2)CC1)c1cc(C(F)(F)F)nc2c(C(F)(F)F)cccc12	1.1	7.41	7.44	–	–
NCCNC[C@@H](O)c1cc(C(F)(F)F)nc2c(C(F)(F)F)cccc12	–	< 6.00	< 6.00	–	–
OC[C@H](NC[C@@H](O)c1cc(C(F)(F)F)nc2c(C(F)(F)F)cccc12)c1ccccc1	10.3	6.99	8.00	–	–
O[C@@H](CNCCN1CCN(C[C@H](O)c2cc(C(F)(F)F)nc3c(C(F)(F)F)cccc23)CC1)c1cc(C(F)(F)F)nc2c(C(F)(F)F)cccc12	2.5	6.34	6.74	–	–
O[C@@H](CNCCCCCCCCCCCCNC[C@H](O)c1cc(C(F)(F)F)nc2c(C(F)(F)F)cccc12)c1cc(C(F)(F)F)nc2c(C(F)(F)F)cccc12	–	< 6.00	< 6.00	–	–
O[C@H](CN1CCN(CCN2CCN(C[C@@H](O)c3cc(C(F)(F)F)nc4c(C(F)(F)F)cccc34)CC2)CC1)c1cc(C(F)(F)F)nc2c(C(F)(F)F)cccc12	–	6.14	–	–	–
OCCCC(CCCO)(CCCO)NC[C@H](O)c1cc(C(F)(F)F)nc2c(C(F)(F)F)cccc12	–	< 6.00	–	–	–
NCCCCCCCCCCCCNC[C@H](O)c1cc(C(F)(F)F)nc2c(C(F)(F)F)cccc12	0.5	6.75	6.42	–	–
